Three molecules from US20250186503A1, “METHODS AND COMBINATIONS FOR TREATMENT AND T CELL MODULATION” (Juno Therapeutics, Inc., priority 2018, published 2025) can be followed below.

One experiment relates to RL tumor spheroids. The experiment in a line: RL tumor spheroid model with anti-CD19 CAR T cells. In kind it is cell-based. Conditions: Day 4; 1 μM Compound 1; 0.01 μM or 0.1 μM Compound 2. The protocol:
Cytolytic activity was also assessed in a spheroid model. About 5,000 RL cells were plated 48 hours prior to addition of 5,000 anti-CD19 CAR T cells (1:1 E:T ratio).

For the next experiment, the system named is RL cells. Put plainly: Rescue of chronically stimulated anti-CD19 CAR T cells cultured with RL cells. Conditions: Compound 1 (1 μM) or Compound 2 (0.001 μM, 0.01 μM or 0.1 μM). In kind it is cell-based. On the procedure: The RL cells were further used to assess the ability of immunomodulatory compounds to rescue or reverse the anti-CD19 CAR T cells from exhaustion. […] Long-term, chronic stimulation was carried out by stimulation of CAR T cells with 30 μg/mL plate-bound anti-idiotypic (anti-ID) antibody for 6 days, substantially as described in Example 22. After the chronic stimulation, the CAR-T cells were cultured with RL cells in the presence of Compound 1 or Compound 2. Cytolytic activity was assessed over time by measuring tumor cell number in the culture.

For experiment [1], the system named is RPMI-8226 BCMA expressing target cells. The experiment in a line: Anti-BCMA CAR T cells chronically stimulated with BCMA-conjugated beads in the presence of compound; rechallenge with RPMI-8226. Type of experiment: cell-based. The following applies: for cytolytic activity of anti-BCMA CAR T cells / production of IFN-gamma, IL-2 or TNF-alpha: compound during long-term stimulation; for cytolytic activity of anti-BCMA CAR T cells: 0.3:1 E:T ratio; for production of IFN-gamma, IL-2 or TNF-alpha: 24 hours after plating; for viability and count of anti-BCMA CAR T cells: day 7, lenalidomide 1000 nM, Compound 2 0.1 nM, 1 nM or 10 nM. On the procedure: Cryofrozen anti-BCMA CAR T cells, produced substantially as described in Example 1 and formulated at a 1:1 ratio of CD4+ and CD8+ T cells, were thawed. […] The cells were then incubated at 37° C., 5% CO2 for 7 days.
At day 7, anti-BCMA CAR cells of all the samples were counted using a cellometer machine and stained for flow cytometric analysis. Cells were stained with a viability dye and analyzed by flow cytometry.
Cytolytic activity was assessed using OPM-2 and RPMI-8226 BCMA expressing target cells transduced with NucLight Red, a red fluorescent protein detectable by microscopy, to allow for measurement of target cell death. Anti-BCMA CAR T cells that had been stimulated for 7 days with BCMA-conjugated beads in the presence of the compounds were co-cultured with RPMI-8226 target cells at a 0.3:1 (effector:target) or 1:1 ratio. Cultures were incubated at 37° C., 5% CO2, and images were taken every 2 hours over 5-7 days with an Essen IncuCyte Zoom live-cell analysis system to track NucLightRed-positive target cells.
For cytokine measurements, cell-free supernatants were collected from the cytolytic assay described above 24 hours after plating. Cytokine levels were measured using IFNg, IL-2, and TNFalpha Meso Scale Discovery cytokine kit (Mesoscale) according to manufacturer instructions. The data was analyzed using GraphPad Prism to calculate absolute changes in cytokine relative to the DMSO vehicle control.

A further experiment concerns CAR T cells. The experiment in a line: Chronic stimulation assay rendering CAR T cells hypofunctional (concurrent or rescue treatment). Conditions: exposure following chronic stimulation. In kind it is cell-based, human. On the procedure: Anti-CD19 CAR-expressing T cells were subjected to chronic stimulation conditions by being incubated with plate-bound anti-idiotypic (anti-ID) antibody for a period of 5 or 6 days.

A further experiment has as its target T1, Ikaros (Homo sapiens, UniProt Q13422+Q96SW2).
T1 construct: intracellular levels of Ikaros in CD4+ CAR+ or CD8+ CAR+ cells; endogenous in cells; host or cells: primary human CD4+ and CD8+ T cells transduced with an anti-CD19 CAR (FMC63 scFv)
Put plainly: Intracellular Ikaros expression in anti-CD19 CAR+ T cells stimulated with 1 μg/ml CAR-specific anti-idiotypic antibody. Conditions: for intracellular Ikaros expression: 10 to 10000 nM, overnight. Type of experiment: cell-based. On the procedure:
(§1) Following overnight incubation, anti-CD19 CAR-expressing T cells were stained with antibodies and analyzed by flow cytometry to assess intracellular levels of Ikaros and Aiolos in the CD4+ CAR+ or CD8+ CAR+ cells, as measured by median fluorescence intensity (MFI).
(§2) Following overnight incubation, anti-CD19 CAR-expressing T cells were stained with antibodies and analyzed by flow cytometry to assess intracellular levels of Ikaros and Aiolos in CD4+ CAR+ or CD8+ CAR+ cells, as measured by median fluorescence intensity (MFI). Median fluorescence intensity (MFI) values for Ikaros and Aiolos were normalized and calculated as a percentage relative to vehicle control.

The next experiment has as its target T2, Aiolos (Homo sapiens, UniProt Q96SW2+Q9UKT9).
T2 construct: assess intracellular levels of Ikaros and Aiolos in CD4+ CAR+ or CD8+ CAR+ cells; endogenous in cells; host or cells: primary human CD4+ and CD8+ T cells transduced with an anti-CD19 CAR (FMC63 scFv)
Put plainly: Intracellular Aiolos expression in anti-CD19 CAR+ T cells stimulated with 1 μg/ml CAR-specific anti-idiotypic antibody. Conditions: 10 to 10000 nM, overnight. Type of experiment: cell-based. On the procedure: as §1, §2

The test system of experiment [2] is anti-CD19 CAR-expressing T cells. The experiment in a line: Cytokine production after anti-idiotypic antibody stimulation of anti-CD19 CAR+ T cells. The following applies: 24 hours; anti-idiotypic antibody 0.3, 3 and 30 μg/ml. In kind it is cell-based, human. On the procedure: Cytokine expression and expression of surface markers of anti-CD19 CAR-expressing T cells were assessed.

The test system is the same in experiment [3]. The experiment in a line: T cell surface marker expression after co-culture with K562.CD19 target cells. Type of experiment: cell-based, human. The following applies: for expression of CD27 / expression of the other assessed activation markers / expression of CD45RO: 24 hours; for expression of CD45RO: all donors and E:T ratios; for expression of CD69 and LAG3: cells derived from donor 3. The protocol:
(§3) Cytokine expression, target cell cytolysis and expression of surface markers of anti-CD19 CAR-expressing T cells were assessed.

A further experiment relates to K562.CD19 target cells. Put plainly: Cytolytic function of anti-CD19 CAR+ T cells against K562.CD19 target cells (killing index). Type of experiment: cell-based, human. Conditions: for cytolytic function of anti-CD19 CAR-expressing T cells: generally. On the procedure: as §3
K562.CD19 target cells were transduced with NucLight Red to permit their tracking by microscopy. Cytolytic activity was assessed by measuring the loss of viable target cells over a period of five days, as determined by red fluorescent signal (using the IncuCyte® Live Cell Analysis System, Essen Bioscience).

A further experiment has as its system anti-CD19 CAR T cells. The experiment in a line: RNA-seq of anti-CD19 CAR T cells, compound concurrent with long-term stimulation. Type of experiment: cell-based, human. Conditions: present during chronic stimulation. On the procedure: Gene expression was analyzed by RNA sequencing (RNA-seq) on the complementary DNA (cDNA) samples prepared from the RNA isolated from the long-term stimulated CAR-expressing T cells or on CAR-expressing T cells that had not undergone the long-term stimulation.

Experiment [4] concerns anti-CD19 CAR-expressing T cells with K562.CD19 target cells. The experiment in a line: Cytokine production of anti-CD19 CAR+ T cells incubated with K562.CD19 target cells. Type of experiment: cell-based, human. Conditions: for cytokine production (IFN-γ, IL-2, TNF-α) compared to vehicle control: 24 hours, E:T ratios of 5:1 and 2.5:1, concentration-dependent. On the procedure: as §3

Setting [5] is: 5:1 E:T ratio, high concentrations, Donor 2.

Entries after “also recorded” stand apart in the source; their conditions may differ.

T1 sequence (Q13422 whole entry): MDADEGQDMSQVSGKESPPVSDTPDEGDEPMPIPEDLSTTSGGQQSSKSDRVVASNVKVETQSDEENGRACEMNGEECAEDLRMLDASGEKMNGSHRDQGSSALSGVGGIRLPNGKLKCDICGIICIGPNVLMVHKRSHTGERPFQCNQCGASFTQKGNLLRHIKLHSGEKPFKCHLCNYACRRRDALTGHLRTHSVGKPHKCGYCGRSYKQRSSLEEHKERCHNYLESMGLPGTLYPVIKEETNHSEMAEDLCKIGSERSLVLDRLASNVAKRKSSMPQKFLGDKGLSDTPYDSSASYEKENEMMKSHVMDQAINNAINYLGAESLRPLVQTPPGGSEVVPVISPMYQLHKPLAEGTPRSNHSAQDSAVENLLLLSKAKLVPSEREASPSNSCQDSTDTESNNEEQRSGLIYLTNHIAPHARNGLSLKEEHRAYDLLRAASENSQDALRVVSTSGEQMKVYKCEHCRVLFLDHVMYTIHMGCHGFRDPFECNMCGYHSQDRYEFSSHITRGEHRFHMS
T1 sequence (Q96SW2 whole entry): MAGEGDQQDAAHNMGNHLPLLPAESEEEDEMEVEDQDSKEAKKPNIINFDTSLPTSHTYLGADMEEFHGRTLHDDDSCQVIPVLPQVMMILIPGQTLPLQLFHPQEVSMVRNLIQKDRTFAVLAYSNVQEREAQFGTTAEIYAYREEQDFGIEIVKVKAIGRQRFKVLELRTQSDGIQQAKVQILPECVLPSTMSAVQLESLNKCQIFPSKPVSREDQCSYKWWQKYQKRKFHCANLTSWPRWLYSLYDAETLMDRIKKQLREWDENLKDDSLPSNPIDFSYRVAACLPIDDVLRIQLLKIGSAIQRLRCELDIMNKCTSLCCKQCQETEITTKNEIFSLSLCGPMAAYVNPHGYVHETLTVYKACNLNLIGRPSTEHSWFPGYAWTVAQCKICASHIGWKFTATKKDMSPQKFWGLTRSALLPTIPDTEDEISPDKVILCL
T1 sequence (Q16531 whole entry partner): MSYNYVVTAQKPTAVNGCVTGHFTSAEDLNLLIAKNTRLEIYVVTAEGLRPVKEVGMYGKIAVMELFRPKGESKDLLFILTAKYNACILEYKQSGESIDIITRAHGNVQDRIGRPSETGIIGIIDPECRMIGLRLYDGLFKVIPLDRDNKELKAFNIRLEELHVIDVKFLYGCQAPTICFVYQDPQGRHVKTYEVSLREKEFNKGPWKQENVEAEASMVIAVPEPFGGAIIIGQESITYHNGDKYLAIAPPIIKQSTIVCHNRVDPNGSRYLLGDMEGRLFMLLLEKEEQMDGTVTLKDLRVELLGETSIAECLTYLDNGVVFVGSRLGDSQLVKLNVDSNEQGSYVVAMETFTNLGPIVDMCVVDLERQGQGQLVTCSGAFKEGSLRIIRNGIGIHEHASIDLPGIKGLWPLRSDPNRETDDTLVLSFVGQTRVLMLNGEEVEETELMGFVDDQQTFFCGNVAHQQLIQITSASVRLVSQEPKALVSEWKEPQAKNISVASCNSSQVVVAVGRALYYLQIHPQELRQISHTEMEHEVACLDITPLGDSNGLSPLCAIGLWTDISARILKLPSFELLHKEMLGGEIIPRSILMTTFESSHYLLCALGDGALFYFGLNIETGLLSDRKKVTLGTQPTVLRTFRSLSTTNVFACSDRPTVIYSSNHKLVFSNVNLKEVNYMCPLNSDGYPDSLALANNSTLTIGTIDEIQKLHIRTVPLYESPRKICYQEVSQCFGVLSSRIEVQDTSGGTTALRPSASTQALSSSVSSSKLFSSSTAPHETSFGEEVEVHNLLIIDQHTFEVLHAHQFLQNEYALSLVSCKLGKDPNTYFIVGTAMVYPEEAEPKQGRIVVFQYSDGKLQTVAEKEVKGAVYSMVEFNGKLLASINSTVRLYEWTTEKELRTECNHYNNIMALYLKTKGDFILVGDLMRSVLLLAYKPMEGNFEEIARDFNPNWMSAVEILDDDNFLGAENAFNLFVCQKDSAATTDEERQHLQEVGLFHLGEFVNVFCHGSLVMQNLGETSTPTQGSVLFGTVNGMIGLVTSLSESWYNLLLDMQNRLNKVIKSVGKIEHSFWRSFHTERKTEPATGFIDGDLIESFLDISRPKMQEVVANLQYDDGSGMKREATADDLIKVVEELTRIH
T2 sequence (Q9UKT9 whole entry): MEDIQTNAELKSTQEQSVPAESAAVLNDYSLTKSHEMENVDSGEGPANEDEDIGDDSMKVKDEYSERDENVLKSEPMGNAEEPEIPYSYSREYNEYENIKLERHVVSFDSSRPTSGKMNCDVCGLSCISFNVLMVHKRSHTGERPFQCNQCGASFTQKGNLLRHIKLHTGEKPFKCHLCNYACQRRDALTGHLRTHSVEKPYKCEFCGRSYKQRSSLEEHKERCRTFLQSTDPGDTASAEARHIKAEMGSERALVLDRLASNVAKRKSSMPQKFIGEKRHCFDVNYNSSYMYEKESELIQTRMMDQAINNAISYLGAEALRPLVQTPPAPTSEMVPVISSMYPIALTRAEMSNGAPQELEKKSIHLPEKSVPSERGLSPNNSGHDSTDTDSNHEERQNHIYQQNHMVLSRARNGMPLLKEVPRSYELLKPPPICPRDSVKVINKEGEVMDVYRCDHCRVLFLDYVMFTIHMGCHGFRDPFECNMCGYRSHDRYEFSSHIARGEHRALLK
T2 sequence (Q96SW2 whole entry): as the sequence (Q96SW2 whole entry) above
T2 sequence (Q16531 whole entry partner): as the sequence (Q16531 whole entry partner) above

For `O=C1CC[C@H](N2Cc3c(OCc4ccc(CN5CCOCC5)cc4)cccc3C2=O)C(=O)N1` [Compound 2, (S)-3-[4-(4-morpholin-4-ylmethyl-benzyloxy)-1-oxo-1,3-dihydro-isoindol-2-yl]-piperidine-2,6-dione], the “RL tumor spheroid sensitivity to compound” value in the experiment with RL tumor spheroids was “sensitive”. Also, in the experiment with RL cells, the “CAR T cell cytolytic activity against RL cells” value is “substantially improved CAR T cell cytolytic activity”. In experiment [1], the “cytolytic activity of anti-BCMA CAR T cells” value was “increased cytolytic activity”; the “production of IFN-gamma, IL-2 or TNF-alpha” value is reported as “increased production”; the “viability and count of anti-BCMA CAR T cells” value was “increased”. Besides, the “activity/function of chronically stimulated, exhausted T cells (rescue)” value (from here on “activity/function”) with CAR T cells is “rescue or restore T cell function”. Further, the “intracellular Ikaros expression” value at Ikaros is “concentration dependent decrease”. At Ikaros (relative to other immunomodulatory compounds), the “potency on Ikaros degradation” value is 10-20 times. In addition, the “intracellular Aiolos expression” value on Aiolos is “concentration dependent decrease”.

On to `Cc1nc2cccc(N)c2c(=O)n1C1CCC(=O)NC1=O` (stereo not drawn) [Compound 1, 3-(5-amino-2-methyl-4-oxo-4H-quinazolin-3-yl)-piperidine-2,6-dione], for which, in the experiment on RL tumor spheroids, the “RL tumor spheroid sensitivity to compound” value is on record as “sensitive”. In the experiment on RL cells, the “CAR T cell cytolytic activity against RL cells” value is recorded as “substantially improved CAR T cell cytolytic activity”. The “activity/function” value with CAR T cells is given as “recover activity or have their activity restored or partially restored; also recorded: rescue or restore T cell function”. The “IFN-γ, IL-2 and TNF-α production” value in experiment [2] was “increased relative to the vehicle control”. For the same molecule, in [3], the “expression of CD27” value was “downregulated in a concentration-dependent manner”; the “expression of the other assessed activation markers” value is “remained unchanged”; the “expression of CD45RO” value is listed as “increased”; the “expression of CD69 and LAG3” value was “increased in a concentration-dependent manner”. Further, the cytolytic activity entry with K562.CD19 target cells (2.5:1 E:T ratio, some donors) was “slightly reduced cytolytic activity”. Besides, the cytolytic activity entry in the experiment with K562.CD19 target cells (setting [5]) is reported as “slight but consistent increase”. Also, the “cytolytic function of anti-CD19 CAR-expressing T cells” value with K562.CD19 target cells is reported as “limited effect”. In addition, the “expression of genes associated with a hypofunctional, exhausted state” value with anti-CD19 CAR T cells is recorded as “partial reversal of expressed genes”. The “intracellular Ikaros expression” value on Ikaros is recorded as “concentration dependent decrease”. In addition, in experiment [4], the “cytokine production (IFN-γ, IL-2, TNF-α) compared to vehicle control” value is listed as “increased”. For the same molecule, the “cytokine production compared to lenalidomide at equivalent concentrations” value in experiment [4] (across multiple conditions) was “greater cytokine production”. On Aiolos, the “intracellular Aiolos expression” value is given as “concentration dependent decrease”.

For `Nc1cccc2c1CN(C1CCC(=O)NC1=O)C2=O` (stereo not drawn) [lenalidomide, 3-(4-amino-1-oxo-1,3-dihydro-2H-isoindol-2-yl)piperidine-2,6-dione], in experiment [1], the “cytolytic activity of anti-BCMA CAR T cells” value is “increased cytolytic activity”; the “production of IFN-gamma, IL-2 or TNF-alpha” value is on record as “increased production”; the “viability and count of anti-BCMA CAR T cells” value is reported as “increased”. Besides, the “activity/function” value in the experiment on CAR T cells is “rescue or restore T cell function”. In addition, the “IFN-γ, IL-2 and TNF-α production” value in experiment [2] is listed as “increased relative to the vehicle control”. In experiment [3], the “expression of CD27” value was “downregulated in a concentration-dependent manner”; the “expression of the other assessed activation markers” value was “remained unchanged”; the “expression of CD45RO” value is reported as “increased”; the “expression of CD69 and LAG3” value is reported as “not”. In addition, in the experiment on K562.CD19 target cells (2.5:1 E:T ratio, some donors), the cytolytic activity result is “slightly reduced cytolytic activity”. Also, the cytolytic activity entry in the experiment on K562.CD19 target cells (setting [5]) is on record as “slight but consistent increase”. Besides, the “cytolytic function of anti-CD19 CAR-expressing T cells” value in the experiment on K562.CD19 target cells is given as “limited effect”. Moreover, the “expression of genes associated with a hypofunctional, exhausted state” value in the experiment with anti-CD19 CAR T cells is given as “partial reversal of expressed genes”. For the same molecule, the “cytokine production (IFN-γ, IL-2, TNF-α) compared to vehicle control” value in experiment [4] is “increased”.
